In publication PMC7769672, “Skin-Related Properties and Constituents from the Aerial Parts Extract of Persicaria senticosa” (Oxidative Medicine and Cellular Longevity, 2020):
Where “and” joins values, the source holds several entries; their conditions need not be identical. Equal values may be shown once. Read-outs that look alike come from different tables or passages of the source.

Columns and labels:
[1] = molecular target: mushroom tyrosinase; experiment: Tyrosinase inhibition assay; assay type: biochemical; conditions: for IC50: Table 3, isolated compounds
Method: Tyrosinase inhibitory activity was measured by using the method described by Yagi et al.. The reaction was carried out in 0.1 M potassium phosphate buffer (pH 6.5) containing 1.5 mM L-tyrosine and 1250 units/mL mushroom tyrosinase. The reaction mixture was incubated at 37°C for 20 min. The test samples were assayed for tyrosinase inhibition by measuring its effect on tyrosinase activity using SpectraMax 190PC microplate ELISA reader at 490 nm.

[2] = DPPH radical scavenging activity assay; conditions: for IC50: Table 3, isolated compounds; for DPPH radical scavenging activity (in words): Figure 4
Method: DPPH radical scavenging activity was measured by using the method described by Blois and Ozgen et al.. DPPH solution dissolved in methanol was added to the sample, which was diluted to the required concentration, and the reaction was carried out at room temperature for 30 min. Absorbance was measured at 517 nm using an ELISA reader. The antioxidant butylated hydroxyanisole (BHA) was used as a positive control, and the IC50 value of the sample was determined.

[3] = ABTS radical scavenging activity
Method: ABTS radical scavenging activity was measured by using a previously described method. ABTS+ was formed by mixing 7 mM ABTS solution and 2.45 mM potassium persulfate (K2S2O8) solution with ABTS: K2S2O8 (2 : 1 ratio) for 12–16 h to form a cation (ABTS^+). The absorbance was measured at 734 nm using an ELISA reader. BHA, an antioxidant, was used as the positive control.

[4] = test system: RAW 264.7 cells; experiment: NO assay (nitrite by Griess reagent in LPS-stimulated cells); assay type: cell-based, murine
Method: RAW 264.7 cells were seeded in 96-well plates (5 × 10^4 cells/well) and were treated with sample for 1 h prior to LPS (1 μg/mL) stimulation for 24 h. The negative control was treated with serum-free media. The amount of nitrite, a stable metabolite of NO, was measured by using Griess reagent (1% sulfanilamide and 0.1% naphthylethylenediamine dihydrochloride in 2.5% phosphoric acid). Absorbance was subsequently measured at 540 nm using an ELISA reader. The quantity of nitrite was determined from a standard curve for sodium nitrite.

[5] = test system: RAW 264.7 cells; experiment: Cell cytotoxicity assay (MTT); assay type: cell-based, murine; conditions: Mus musculus, RAW264.7
Method: RAW 264.7 cells were plated at a density of 5 × 10^4 cells/well in 96-well plates. Cells were treated with samples for 1 h prior to LPS (1 μg/mL) stimulation for 24 h. MTT (5 mg/mL in PBS) was added to each well and incubated for 2 hr. The medium was removed from the wells by aspiration, DMSO was added to each well, and the plate was shaken. The absorbance of each well was measured at a wavelength of 540 nm using an ELISA reader. Data are presented as the mean ± standard deviation of three replicates.

[6] = molecular target: elastase (Sus scrofa, UniProt P00772); experiment: Elastase inhibition assay; assay type: biochemical
Method: The reaction was carried out in 0.5 mM Tris buffer (pH 8.5) containing 1 mg/mL N-succinyl-(Ala)3-p-nitroanilide and 0.6 unit/mL elastase. The reaction mixture was incubated at 25°C for 10 min. The test samples were assayed for elastase inhibition by measuring its effect on elastase activity using an ELISA reader at 405 nm. Ursolic acid was used as a positive control, and the IC50 value of the sample was determined.

[7] = Mus musculus, RAW264.7, Table 3, isolated compounds, read-out: NO assay IC50
[8] = Table 3, isolated compounds, read-out: MTT assay IC50
[9] = Table 3, isolated compounds, read-out: Elastase inhibition assay IC50

elastase, sequence (P00772 27-266): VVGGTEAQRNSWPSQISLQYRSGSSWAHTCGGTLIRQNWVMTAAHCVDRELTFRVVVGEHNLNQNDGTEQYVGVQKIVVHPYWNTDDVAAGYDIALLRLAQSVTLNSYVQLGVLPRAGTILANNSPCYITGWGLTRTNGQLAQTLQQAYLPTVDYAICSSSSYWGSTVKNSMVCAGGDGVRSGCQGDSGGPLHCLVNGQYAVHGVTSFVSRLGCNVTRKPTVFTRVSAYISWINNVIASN

| IC50 [2] | IC50 [4, 7] [µM] | IC50 [1] [µM] | IC50 [6, 9] [µM] | SMILES | IC50 [5, 8] [µM] | further results |
| --- | --- | --- | --- | --- | --- | --- |
|  |  |  |  | OC[C@H]1O[C@@H](Oc2ccc(O)cc2)[C@H](O)[C@@H](O)[C@@H]1O [Arbutin, reference compound] |  | Whitening Tyrosinase assay (IC50) ([1]; Table 1, methanol extracts, L-tyrosine substrate): Arbutin 135.0 ± 19.9 μg/mL |
| > 1000 µM | > 100 | > 100 | > 1000 | CC1(C)C[C@H](O)C[C@@]2(C)OC(=O)C=C12 [Compound 1, loliolide] | > 100 |  |
| 31.2 µM | > 100 | > 100 | > 1000 | O=C(O)C1OC(Oc2c(-c3ccc(O)c(O)c3)oc3cc(O)cc(O)c3c2=O)C(O)C(O)C1O (stereo not drawn) [Compound 3, quercetin-3-O-glucuronide] | > 100 | IC50 ([2]; listed as Comp. 3): 31.2 ± 0.47 µM |
| > 1000 µM | > 100 | > 100 | > 1000 | COc1ccc(/C=C/C(=O)OC(C(=O)O)C(O)C(=O)O)cc1O (stereo not drawn) [Compound 4, 4-methoxy caftraric acid] | 84.6 ± 9.85 |  |
| 37 µM | > 100 | > 100 | > 1000 | COC(=O)C1OC(Oc2c(-c3ccc(O)cc3)oc3cc(O)cc(O)c3c2=O)C(O)C(O)C1O (stereo not drawn) [Compound 5, kaempferol-3-(6-methylglucuronide)] | > 100 | DPPH radical scavenging activity (in words) [2]: excellent antioxidant activity; IC50 ([2]; listed as Comp. 5): 36.99 ± 0.16 µM |
| > 1000 µM | > 100 | > 100 | > 1000 | COC(=O)C1OC(Oc2c(-c3ccc(O)c(O)c3)oc3cc(O)cc(O)c3c2=O)C(O)C(O)C1O (stereo not drawn) [Compound 6, quercetin-3-(6-methylglucuronide)] | > 100 |  |
| 22.7 µM | 29.7 |  |  | O=c1c(O)c(-c2ccc(O)c(O)c2)oc2cc(O)cc(O)c12 [Compound 7, quercetin] | > 100 | IC50 ([4]; Table 3, isolated compounds, listed as Comp. 7, read-out: NO assay IC50): 29.7 ± 7.07 µM; IC50 ([2]; listed as Comp. 7): 22.7 ± 0.53 µM |
|  | 14.6 |  |  | [H]/N=C(/NC)NCCC[C@H](N)C(=O)O [L-NMMA, reference compound] | > 100 | IC50 ([4]; Mus musculus, RAW264.7, Table 2 positive control, read-out: Anti-inflammatory NO, positive control): 37.6 µM; IC50 ([4]; Mus musculus, RAW264.7, Table 1 positive control, read-out: Anti-inflammatory NO (IC50), positive control): 36.3 µM; IC50 ([5]; Table 1 positive control, read-out: Anti-inflammatory MTT, positive control): > 100 µM |
|  |  |  | 86.3 | C[C@H]1[C@H](C)CC[C@]2(C(=O)O)CC[C@]3(C)C(=CC[C@@H]4[C@@]5(C)CC[C@H](O)C(C)(C)[C@@H]5CC[C@]43C)[C@H]12 [Ursolic acid, reference compound] |  | IC50 ([6]; Table 1, methanol extracts, read-out: Anti-wrinkle Elastase assay (IC50)): 116 µM; IC50 ([6]; Table 2, fractions, unit inferred, read-out: Antiwrinkle Elastase assay): 85.3 µM |

| SMILES | IC50 [2] | IC50 [4, 7] [µM] | IC50 [1] [µM] | IC50 [6, 9] [µM] | IC50 [5, 8] [µM] | further results |
| --- | --- | --- | --- | --- | --- | --- |
| COc1ccc(O)c(C(C)(C)C)c1 [BHA, butylated hydroxyanisole, reference compound] | 272 µM |  |  |  |  | Antioxidant DPPH (IC50) ([2]; Table 1, methanol extracts, 30 min, 517 nm): BHA 15.6 ± 0.2 μg/mL; Antioxidant DPPH ([2]; Table 2, fractions): BHA 14.58 ± 0.06 μg/mL; Antioxidant ABTS (IC50) ([3]; Table 1, methanol extracts, 734 nm): BHA 2.9 ± 0.1 μg/mL; Antioxidant ABTS ([3]; Table 2, fractions): BHA 4.03 ± 0.05 μg/mL |
| O=c1c(O[C@@H]2O[C@H](CO)[C@@H](O)[C@H](O)[C@H]2O)c(-c2ccc(O)c(O)c2)oc2cc(O)cc(O)c12 [Compound 2, quercetin-3-O-glucoside] | 39.6 µM and 39.4 µM | > 100 | > 100 | > 1000 | > 100 | DPPH radical scavenging activity (in words) [2]: excellent antioxidant activity; IC50 ([2]; listed as Comp. 2): 39.6 ± 4.1 µM |
